Measurements reported in patent US8163509B2, “Biological markers predictive of anti-cancer response to insulin-like growth factor-1 receptor kinase inhibitors” (The Regents of the University of Colorado, A Body Corporate, priority 2008, dated 2012).
Where two headings read alike, the source gives them in different places. One block for each molecule: values may come before it.

What was measured:
GEO CRC cell line = assay: SRB proliferation assay, 72 h; assay type: cell-based; details: Homo sapiens
Method: Cell proliferation was evaluated by SRB following exposure to OSI-906 for 72 hours. Cells were plated at an optimized density in 96-well plates, incubated overnight at 37° C., and then exposed to a serial dilution of OSI-906. After 72 hours incubation, cells were fixed with trichloroacetic acid and an SRB was performed as described in materials and methods.
Cell Lines and Culture: Twenty-seven human colon cancer cell lines, were obtained from American Type Culture Collection (Manassas, Va.). The GEO cells were a generous gift from Dr. Fortunato Ciardiello (Cattedra di Oncologia Medica, Dipartimento Medico-Chirurgico di Internistica Clinica e Sperimentale “F Magrassi e A Lanzara,” Seconda Università degli Studi di Napoli, Naples). All cells except GEO were grown in RPMI medium supplemented with 10% fetal bovine serum, 1% non-essential amino acids, 1% penicillin/streptomycin and were maintained at 37° C. in an incubator under an atmosphere containing 5% CO2. GEO cells were grown in DMEM/F12 supplemented with 10% fetal bovine serum, 1% non-essential amino acids, 1% penicillin/streptomycin. The cells were routinely screened for the presence of mycoplasma (MycoAlert, Cambrex Bio Science, Baltimore, Md.) and were exposed to OSI-906 when they reached approximately 70% confluence. OSI-906 was provided by OSI Pharmaceuticals, (Boulder, Colo.) and prepared as a 10 mM stock solution in DMSO.

IGF1R = target: T1, IGF1R (Homo sapiens, UniProt P08069); assay: Immunoprecipitation and immunoblotting, IGF-2 induced receptor autophosphorylation; assay type: cell-based; details: PQIP 0.4 μmol/L 3 h pre-exposure, IGF-2 100 ng/mL 10 minutes
T1 construct: endogenous in cells; host or cells: HT29 and HCT116 CRC cell lines
Excerpt: Total protein was quantified using the BioRad Dc Protein Assay (BioRad, Hercules, Calif.).

HCT116 CRC cell line = assay: Gene expression analysis post PQIP exposure (gene array); assay type: cell-based, human; details: 400 nM PQIP, 72 hours
Method: (§1) Microarray Analysis: Cells were plated at 2×106 in 6-well plates 24 h prior to harvest. After 24 hours cells were rinsed twice with PBS, and RNA was prepared using a RNeasy Plus mini kit (Qiagen, Valencia, Calif.). RNA stabilization, isolation, and microarray sample labeling were carried out using standard methods for reverse transcription and one round of in vitro transcription. HG-U133 set microarrays were hybridized with 10 μg of cRNA and processed according to the protocols of the manufacturer (Affymetrix). Hybridization signals and detection calls were generated in BioConductor, using the germa and affy software packages. Microarray data was analyzed using BRB ArrayTools v3.2 developed by Dr. Richard Simon and Amy Peng Lam.
(§2) Gene Expression Analysis Post PQIP Exposure: In order to identify genes that are modulated following exposure to PQIP, 5 sensitive and 5 resistant CRC cell lines were treated with 400 nM PQIP for 72 hours, total RNA was purified, and gene array analysis was performed as described previously. The gene expression profiles following PQIP exposure were compared to the respective untreated profiles. To characterize changes in gene expression profile, one PQIP resistant (HCT116) and one PQIP sensitive (HT29) tumor cell type was examined, and caldesmon, metallothioneins, ALDH1A1, and MAP2K6 expression levels were analyzed.

HT29 CRC cell line = assay: as above; assay type: cell-based, human; details: 400 nM PQIP, 72 hours
Method: as §1, §2

S6 ribosomal protein = assay: Immunoblotting, pathway activation; assay type: cell-based, human; details: PQIP 0.4 μmol/L 3 h, with or without IGF-2 stimulation
Method: (§3) Immunoprecipitation and Immunoblotting: HT29 and HCT116 CRC cell lines were seeded into 6-well plates, allowed to attach for 24 hours and serum starved overnight. Cells were then exposed to IGF-2 (100 ng/mL) for 10 minutes with or without a 3 hour PQIP (0.4 μmol/L) pretreatment. After treatment cells were rinsed with PBS and scraped into RIPA lysis buffer containing protease inhibitors, EDTA, NaF, and sodium orthovanadate. Total protein was quantified using the BioRad Dc Protein Assay (BioRad, Hercules, Calif.). Total protein (30 μg) was electrophoresed on a 4-20% gradient SDS-polyacrylimide gel then electrophoretically transferred to Immobilon-P (Millipore, Bedford, Mass.). Membranes were blocked for 1 hour in 5% non-fat dry milk (BioRad, Hercules, Calif.) in TBS-Tween (0.1%) prior to overnight incubation at 4° C. with the appropriate primary antibody. Blots were then washed 3×20 minutes in TBS-Tween (0.1%) and were incubated with the appropriate secondary anti-rabbit or anti-mouse IgG1 horseradish peroxidase-linked antibody at 1:20,000 (Jackson ImmunoResearch, West Grove, Pa.) for one hour at room temperature. After three additional washes, the blots were developed by Immobilon Western Chemiluminescent HRP substrate (Millipore, Billerica, Mass.). Anti-IGF1Rβ rabbit polyclonal (Cell Signaling Technology, Danvers, Mass.) was used for immunoprecipitation at a 1:50 dilution. The following primary antibodies were used for immunoblotting (all from Cell Signaling Technology, Danvers, Mass.). Anti-phosphorylated Akt (T308) rabbit polyclonal, anti-phosphorylated S6 ribosomal protein (S235/236) rabbit mAb, anti-phosphorylated p44/42 MAPK (Thr202/Tyr204) rabbit mAb, and anti-phosphorylated tyrosine mouse mAb at 1:1.000. Anti-Akt (pan) rabbit mAb, anti-S6 ribosomal protein rabbit mAb, anti-p44/42 MAP Kinase rabbit mAb, anti Pan-Actin rabbit polyclonal, anti-IGF1Rβ rabbit polyclonal, anti-PARP rabbit polyclonal, and anti-cyclin D1 rabbit polyclonal at 1:5000.
(§4) Effect of PQIP on receptor phosphorylation and pathway activation: Since PQIP is expected to inhibit autophosphorylation of IGF1R, we tested its ability to inhibit IGF-2 mediated activation of the receptor and pathway. One PQIP sensitive and one PQIP resistant CRC cell line were chosen for immunoprecipitation and immunoblotting analysis. Following 18 h serum starvation, HT29 and HCT116 CRC cell lines were stimulated or unstimulated for 10 minutes with 100 ng/mL of IGF-2 with or without a 3 h pre-exposure to PQIP (0.4 μmol/L).

Akt = assay: Immunoblotting, pathway activation; assay type: cell-based, human; details: PQIP 0.4 μmol/L 3 h, with or without IGF-2 stimulation
Method: as §3, §4

p42/44 MAPK = assay: Immunoblotting, pathway activation; assay type: cell-based, human; details: PQIP 0.4 μmol/L 3 h pre-exposure, IGF-2 100 ng/mL 10 minutes
Method: as §3, §4

T1 sequence (P08069 31-1367): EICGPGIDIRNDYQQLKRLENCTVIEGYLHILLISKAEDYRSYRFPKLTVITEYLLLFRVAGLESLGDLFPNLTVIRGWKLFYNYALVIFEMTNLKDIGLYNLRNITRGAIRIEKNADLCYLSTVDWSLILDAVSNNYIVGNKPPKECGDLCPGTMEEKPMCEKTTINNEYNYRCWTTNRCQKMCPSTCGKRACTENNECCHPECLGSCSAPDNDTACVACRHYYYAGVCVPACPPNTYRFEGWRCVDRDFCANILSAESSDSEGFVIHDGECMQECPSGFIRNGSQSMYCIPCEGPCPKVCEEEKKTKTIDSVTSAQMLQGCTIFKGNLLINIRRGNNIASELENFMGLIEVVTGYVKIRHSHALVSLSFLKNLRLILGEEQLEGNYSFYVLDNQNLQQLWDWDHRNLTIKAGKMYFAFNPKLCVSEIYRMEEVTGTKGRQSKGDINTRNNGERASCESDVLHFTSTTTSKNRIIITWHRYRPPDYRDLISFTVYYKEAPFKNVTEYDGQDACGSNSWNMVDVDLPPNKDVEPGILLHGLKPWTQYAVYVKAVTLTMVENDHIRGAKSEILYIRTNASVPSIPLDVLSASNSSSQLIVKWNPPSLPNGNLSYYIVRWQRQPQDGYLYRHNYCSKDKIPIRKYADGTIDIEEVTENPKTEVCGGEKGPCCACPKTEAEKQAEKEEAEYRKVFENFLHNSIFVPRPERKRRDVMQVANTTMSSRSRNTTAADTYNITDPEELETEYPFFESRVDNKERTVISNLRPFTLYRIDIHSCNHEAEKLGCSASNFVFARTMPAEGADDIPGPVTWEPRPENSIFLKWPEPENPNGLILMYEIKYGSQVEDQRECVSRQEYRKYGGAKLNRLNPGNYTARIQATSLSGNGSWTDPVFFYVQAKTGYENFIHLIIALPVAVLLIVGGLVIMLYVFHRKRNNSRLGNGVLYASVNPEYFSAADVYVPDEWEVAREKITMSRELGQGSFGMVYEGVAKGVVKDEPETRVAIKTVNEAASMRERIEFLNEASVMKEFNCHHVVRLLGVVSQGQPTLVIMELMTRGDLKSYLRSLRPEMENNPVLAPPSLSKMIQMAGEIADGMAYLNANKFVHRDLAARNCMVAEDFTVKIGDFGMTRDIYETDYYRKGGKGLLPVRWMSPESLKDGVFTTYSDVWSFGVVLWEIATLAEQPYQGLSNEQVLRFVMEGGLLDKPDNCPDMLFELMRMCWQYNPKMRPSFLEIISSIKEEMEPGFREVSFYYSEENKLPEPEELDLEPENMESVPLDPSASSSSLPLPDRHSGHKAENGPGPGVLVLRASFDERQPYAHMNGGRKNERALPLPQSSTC

SMILES: C[C@]1(O)C[C@@H](c2nc(-c3ccc4ccc(-c5ccccc5)nc4c3)c3c(N)nccn32)C1 [OSI-906, cis-3-[8-amino-1-(2-phenyl-quinolin-7-yl)-imidazo[1,5-a]pyrazin-3-yl]-1-methyl-cyclobutanol]
IC50 (GEO CRC cell line; 72 hours, read-out: IC50, proliferation, OSI-906 (SRB)): ≤ 1.5 µM
IC50 (GEO CRC cell line; read-out: S/I/R to OSI-906): ≤ 1.5 µM

IGF-2 induced tyrosine autophosphorylation of IGF1R (IGF1R; HCT116): almost fully inhibits
IGF-2 induced tyrosine autophosphorylation of IGF1R (IGF1R; HT29): almost fully inhibits
SMILES: CN1CCN([C@H]2C[C@@H](c3nc(-c4ccc5ccc(-c6ccccc6)nc5c4)c4c(N)nccn43)C2)CC1 [PQIP, cis-3-[3-(4-Methyl-piperazin-1-yl)-cyclobutyl]1-(2-phenyl-quinolin-7-yl)-imidazo[1,5-a]pyrazin-8-ylamine]
Fold change of post exposure PQIP to untreated, ALDH1A1 expression (HCT116 CRC cell line): 2.3 fold
Fold change of post exposure PQIP to untreated, CALD1 expression (HCT116 CRC cell line): 1.9 fold
Fold change of post exposure PQIP to untreated, MAP2K6 expression (HCT116 CRC cell line): 0.7 fold
Fold change of post exposure PQIP to untreated, MT1E expression (HCT116 CRC cell line): 1.2 fold
Fold change of post exposure PQIP to untreated, MT1F expression (HCT116 CRC cell line): 1.6 fold
Fold change of post exposure PQIP to untreated, MT1G expression (HCT116 CRC cell line): 1.1 fold
Fold change of post exposure PQIP to untreated, MT1H expression (HCT116 CRC cell line): 1.8 fold
Fold change of post exposure PQIP to untreated, MT1M expression (HCT116 CRC cell line): 1.5 fold
Fold change of post exposure PQIP to untreated, MT1X expression (HCT116 CRC cell line): 2.0 fold
Fold change of post exposure PQIP to untreated, MT2A expression (HCT116 CRC cell line): 1.0 fold
Fold change of post exposure PQIP to untreated, ALDH1A1 expression (HT29 CRC cell line): 0.56 fold
Fold change of post exposure PQIP to untreated, CALD1 expression (HT29 CRC cell line): 1.5 fold
Fold change of post exposure PQIP to untreated, MAP2K6 expression (HT29 CRC cell line): 0.87 fold
Fold change of post exposure PQIP to untreated, MT1E expression (HT29 CRC cell line): 12.5 fold
Fold change of post exposure PQIP to untreated, MT1F expression (HT29 CRC cell line): 10.8 fold
Fold change of post exposure PQIP to untreated, MT1G expression (HT29 CRC cell line): 4.5 fold
Fold change of post exposure PQIP to untreated, MT1H expression (HT29 CRC cell line): 11.0 fold
Fold change of post exposure PQIP to untreated, MT1M expression (HT29 CRC cell line): 15.2 fold
Fold change of post exposure PQIP to untreated, MT1X expression (HT29 CRC cell line): 16.0 fold
Fold change of post exposure PQIP to untreated, MT2A expression (HT29 CRC cell line): 8.1 fold
phosphorylation of S6 ribosomal protein (S6 ribosomal protein; HCT116): inhibits
phosphorylation of S6 ribosomal protein (S6 ribosomal protein; HT29): inhibits
phosphorylation of Akt (Akt; HCT116): inhibits
phosphorylation of Akt (Akt; HT29): inhibits
IGF-2 induced phosphorylation of p42/44 MAPK (p42/44 MAPK; HCT116): not in resistant HCT116
IGF-2 induced phosphorylation of p42/44 MAPK (p42/44 MAPK; HT29): inhibited
